Values after ≈ are worked out from the molar mass of the structure shown. Active and inactive are the calls of the source. The rule behind the calls is not given here.
Assays:
Pseudomonas aeruginosa [1] = experiment: Potency index, ratio of LL-37 MIC to compound MIC for multidrug-resistant Pseudomonas aeruginosa CCARM 2095; type: functional
Staphylococcus aureus [2] = experiment: Antibacterial activity against methicillin resistant Staphylococcus aureus CCARM 3089 after 24 hrs; type: functional; conditions: CCARM 3089, 24 h
[3] = Binding affinity to EYPC/cholesterol small unilamellar vesicles assessed as intrinsic tryptophan acrylamide quenching constant by fluorescence assay (reference value: 5.95 to 7.56 /M)
Salmonella typhimurium = experiment: Antibacterial activity against Salmonella typhimurium KCTC 11926 after 24 hrs; type: functional, Salmonella enterica subsp. enterica serovar Typhimurium; conditions: Salmonella enterica, KCTC 11926, 24 h
[4] = Therapeutic index, ratio of MHC10 for human RBC to MIC for Escherichia coli KCTC 1682; type: toxicity; conditions: red blood cells (RBC), pooled result: one value given for 6 cell lines, strains, targets or settings, read-out: TI
Pseudomonas aeruginosa [5] = experiment: Antibacterial activity against multidrug-resistant Pseudomonas aeruginosa CCARM 2095 after 24 hrs; type: functional; conditions: CCARM 2095, 24 h
Staphylococcus aureus [6] = experiment: Potency index, ratio of LL-37 MIC to compound MIC for methicillin resistant Staphylococcus aureus CCARM 3089; type: functional
Pseudomonas aeruginosa [7] = experiment: Synergistic antibacterial activity against multidrug-resistant Pseudomonas aeruginosa CCARM 2095 after 72 hrs in presence of chloramphenicol by chequerboard assay; type: functional
Pseudomonas aeruginosa [8] = experiment: Antibiofilm activity against multidrug-resistant Pseudomonas aeruginosa CCARM 2095 after 24 hrs by crystal violet staining based assay; type: functional
Escherichia coli = experiment: Antibacterial activity against Escherichia coli KCTC 1682 in presence of 1 mM MgCl2 after 24 hrs; type: functional; conditions: KCTC 1682, 24 h
Enterococcus faecium = experiment: Potency index, ratio of LL-37 MIC to compound MIC for Vancomycin-resistant Enterococcus faecium ATCC 51559; type: functional
RAW264.7 = experiment: Anti-inflammatory activity in mouse RAW264.7 cells assessed as reduction in LPS-induced iNOS mRNA expression at 5 uM after 6 hrs by RT-PCR analysis; type: functional, cell-based
Staphylococcus aureus [9] = experiment: Antibacterial activity against Staphylococcus aureus KCTC 1621 in presence of 150 mM NaCl after 24 hrs; type: functional; conditions: KCTC 1621, 24 h
Staphylococcus aureus [10] = experiment: Antibacterial activity against Staphylococcus aureus KCTC 1621 in presence of 6 uM NH4Cl after 24 hrs; type: functional; conditions: KCTC 1621, 24 h
[11] = Hemolytic activity in human RBC at 96 uM after 1 hr relative to control; type: ADME, cell-based, Erythrocyte; conditions: red blood cells (RBC, erythrocytes), read-out: Activity

CC[C@H](C)[C@H](NC(=O)[C@H](CC(C)C)NC(=O)[C@@H](CCCCN)NC(=O)[C@@H](NC(=O)[C@@H](NC(=O)[C@H](CCCNC(=N)N)NC(=O)[C@@H](N)CCCCN)[C@@H](C)CC)C(C)C)C(=O)N[C@@H](CC(C)C)C(=O)N[C@@H](CCCCN)C(=O)N[C@@H](Cc1c[nH]c2ccccc12)C(=O)N[C@@H](CC(C)C)C(=O)N[C@@H](CCCNC(=N)N)C(N)=O
Ratio (Pseudomonas aeruginosa [1]): 2 - 4
MIC (Staphylococcus aureus [2]): 4 µM (≈ 6.26 µg/mL)
KSV [3]: 2.21 M⁻¹
MIC (Salmonella typhimurium): 2 µM (≈ 3.13 µg/mL)
selectivity ratio [4]: 16.8
MIC (Pseudomonas aeruginosa [5]): 8 µM (≈ 12.5 µg/mL)
Ratio (Staphylococcus aureus [6]): 2 - 4
fractional inhibitory concentration index (FICI) (Pseudomonas aeruginosa [7]): 0.375
MBIC90 (Pseudomonas aeruginosa [8]): 8 µM
MIC (Escherichia coli): 8 µM
Ratio (Enterococcus faecium): 2 - 4
Activity (RAW264.7): Active
MIC (Staphylococcus aureus [9]): 2 µM
MIC (Staphylococcus aureus [10]): 2 µM

CC[C@H](C)[C@H](NC(=O)[C@H](CCCNC(=N)N)NC(=O)[C@@H](N)CCCCN)C(=O)N[C@H](C(=O)N[C@@H](CCCCN)C(=O)N[C@@H](CC(C)C)C(=O)N[C@H](CC(C)C)C(=O)N[C@@H](CC(C)C)C(=O)N[C@@H](CCCCN)C(=O)N[C@@H](Cc1c[nH]c2ccccc12)C(=O)N[C@@H](CC(C)C)C(=O)N[C@@H](CCCNC(=N)N)C(N)=O)C(C)C
Ratio (Pseudomonas aeruginosa [1]): 2 - 4
MIC (Staphylococcus aureus [2]): 4 µM (≈ 6.26 µg/mL)
KSV [3]: 2.98 M⁻¹
MIC (Salmonella typhimurium): 2 µM (≈ 3.13 µg/mL)
selectivity ratio [4]: 30
MIC (Pseudomonas aeruginosa [5]): 8 µM (≈ 12.5 µg/mL)
Ratio (Staphylococcus aureus [6]): 2 - 4
fractional inhibitory concentration index (FICI) (Pseudomonas aeruginosa [7]): 0.5
MBIC90 (Pseudomonas aeruginosa [8]): 8 µM
MIC (Escherichia coli): 8 µM
Ratio (Enterococcus faecium): 2 - 4
Activity (RAW264.7): Active
MIC (Staphylococcus aureus [9]): 4 µM
MIC (Staphylococcus aureus [10]): 2 µM

CC[C@H](C)[C@H](NC(=O)[C@H](CC(C)C)NC(=O)[C@H](CCCCN)NC(=O)[C@@H](NC(=O)[C@@H](NC(=O)[C@H](CCCNC(=N)N)NC(=O)[C@@H](N)CCCCN)[C@@H](C)CC)C(C)C)C(=O)N[C@@H](CC(C)C)C(=O)N[C@@H](CCCCN)C(=O)N[C@@H](Cc1c[nH]c2ccccc12)C(=O)N[C@@H](CC(C)C)C(=O)N[C@@H](CCCNC(=N)N)C(N)=O
Ratio (Pseudomonas aeruginosa [1]): 2 - 4
MIC (Staphylococcus aureus [2]): 4 µM (≈ 6.26 µg/mL)
KSV [3]: 1.66 M⁻¹
MIC (Salmonella typhimurium): 2 µM (≈ 3.13 µg/mL)
selectivity ratio [4]: 4.4
MIC (Pseudomonas aeruginosa [5]): 16 µM (≈ 25 µg/mL)
hemolysis at 1 h, 96 µM [11]: 50%
Ratio (Staphylococcus aureus [6]): 2 - 4
fractional inhibitory concentration index (FICI) (Pseudomonas aeruginosa [7]): 0.25
MBIC90 (Pseudomonas aeruginosa [8]): 16 µM
MIC (Escherichia coli): 8 µM
Ratio (Enterococcus faecium): 2 - 4
Activity (RAW264.7): Active
MIC (Staphylococcus aureus [9]): 2 µM
MIC (Staphylococcus aureus [10]): 2 µM

CC[C@H](C)[C@H](NC(=O)[C@H](CCCNC(=N)N)NC(=O)[C@@H](N)CCCCN)C(=O)N[C@H](C(=O)N[C@@H](CCCCN)C(=O)N[C@H](CC(C)C)C(=O)N[C@H](C(=O)N[C@@H](CC(C)C)C(=O)N[C@@H](CCCCN)C(=O)N[C@@H](Cc1c[nH]c2ccccc12)C(=O)N[C@@H](CC(C)C)C(=O)N[C@@H](CCCNC(=N)N)C(N)=O)[C@@H](C)CC)C(C)C
Ratio (Pseudomonas aeruginosa [1]): 2 - 4
MIC (Staphylococcus aureus [2]): 4 µM (≈ 6.26 µg/mL)
KSV [3]: 2.9 M⁻¹
MIC (Salmonella typhimurium): 2 µM (≈ 3.13 µg/mL)
selectivity ratio [4]: 61.2
MIC (Pseudomonas aeruginosa [5]): 8 µM (≈ 12.5 µg/mL)
Ratio (Staphylococcus aureus [6]): 2 - 4
fractional inhibitory concentration index (FICI) (Pseudomonas aeruginosa [7]): 0.375
MBIC90 (Pseudomonas aeruginosa [8]): 16 µM
MIC (Escherichia coli): 4 µM
Ratio (Enterococcus faecium): 2 - 4
Activity (RAW264.7): Active
MIC (Staphylococcus aureus [9]): 8 µM
MIC (Staphylococcus aureus [10]): 2 µM

Source: ChEMBL document CHEMBL4138105, “LL-37-derived short antimicrobial peptide KR-12-a5 and its d-amino acid substituted analogs with cell selectivity, anti-biofilm activity, synergistic effect with conventional antibiotics, and anti-inflammatory activity” (Eur J Med Chem, 2017)
